Assay [1] deals with T1, Kinesin-like protein KIF15 (Homo sapiens) (UniProt Q9NS87).
T1 sequence (whole entry): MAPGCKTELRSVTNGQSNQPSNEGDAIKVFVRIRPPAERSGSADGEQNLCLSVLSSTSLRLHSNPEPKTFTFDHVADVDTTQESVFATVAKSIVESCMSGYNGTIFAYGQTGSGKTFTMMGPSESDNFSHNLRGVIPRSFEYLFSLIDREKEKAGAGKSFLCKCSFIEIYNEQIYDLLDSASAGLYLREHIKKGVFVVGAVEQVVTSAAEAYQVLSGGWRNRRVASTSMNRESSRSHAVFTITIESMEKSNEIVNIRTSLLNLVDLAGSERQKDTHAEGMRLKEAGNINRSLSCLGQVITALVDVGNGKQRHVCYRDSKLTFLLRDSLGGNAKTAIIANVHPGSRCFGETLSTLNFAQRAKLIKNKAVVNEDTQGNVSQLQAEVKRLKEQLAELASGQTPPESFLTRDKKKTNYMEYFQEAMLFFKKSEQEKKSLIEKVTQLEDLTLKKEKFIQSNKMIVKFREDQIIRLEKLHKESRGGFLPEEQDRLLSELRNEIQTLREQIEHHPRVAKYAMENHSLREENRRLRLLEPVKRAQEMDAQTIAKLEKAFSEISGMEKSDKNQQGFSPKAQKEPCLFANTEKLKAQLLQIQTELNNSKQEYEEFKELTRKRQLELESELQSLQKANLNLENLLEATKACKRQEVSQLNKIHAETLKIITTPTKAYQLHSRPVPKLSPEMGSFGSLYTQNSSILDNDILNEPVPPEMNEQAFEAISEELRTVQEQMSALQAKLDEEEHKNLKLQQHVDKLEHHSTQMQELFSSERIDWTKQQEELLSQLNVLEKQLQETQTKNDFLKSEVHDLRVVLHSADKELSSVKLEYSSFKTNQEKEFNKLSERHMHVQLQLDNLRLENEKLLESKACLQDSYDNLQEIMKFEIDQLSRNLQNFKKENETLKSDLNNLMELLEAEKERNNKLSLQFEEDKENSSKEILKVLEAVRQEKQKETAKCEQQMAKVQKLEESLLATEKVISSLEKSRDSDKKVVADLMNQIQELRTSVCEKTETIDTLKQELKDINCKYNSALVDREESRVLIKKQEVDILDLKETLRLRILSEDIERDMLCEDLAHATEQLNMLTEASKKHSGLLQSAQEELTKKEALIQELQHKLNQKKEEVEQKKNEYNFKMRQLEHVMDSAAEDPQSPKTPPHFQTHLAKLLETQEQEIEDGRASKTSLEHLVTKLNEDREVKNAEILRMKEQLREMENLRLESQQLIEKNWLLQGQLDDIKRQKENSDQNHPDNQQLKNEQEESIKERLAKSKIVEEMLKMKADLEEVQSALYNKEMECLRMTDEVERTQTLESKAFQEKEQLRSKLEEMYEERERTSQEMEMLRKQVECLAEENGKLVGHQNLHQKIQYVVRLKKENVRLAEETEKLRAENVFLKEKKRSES
Description: Inhibition of recombinant His6-tagged Kif15 (N700 residues) (unknown origin) expressed in HeLa cells assessed as reduction in Alexa-594 labelled microtubule gliding at 750 nM measured every 2 secs for 20 secs by epifluorescence microscopic analysis (reference value: 1%). In kind it is cell-based.

Assay [2] deals with T1, Kinesin-like protein KIF15 (Homo sapiens). Description: Inhibition of Kif15 in TP53-deficient human RPE1 cells assessed as effect on spindle length at 25 uM after 24 hrs by Hoechst 33342 staining based immunofluorescence microscopic analysis (reference value: 11.4 +/- 0.2 um).
Assay [3] shares this target. Description: Inhibition of Kif15 in TP53-deficient human RPE1 cells assessed as cells with bipolar pre-anaphase microtubule structure at 25 uM after 24 hrs by Hoechst 33342 staining based immunofluorescence microscopic analysis (reference value: 90 to 94%). Set-up: scale not given: the % may be the effect or the level left.
Assay [4] has the same target. As to the kind of experiment: ATP competitive inhibition of recombinant His6-tagged Kif15 ATPase activity (N700 residues) (unknown origin) expressed in HeLa cells at 5 uM using microtubule as substrate preincubated for 30 mins followed by varying levels of ATP addition by double reciprocal Lineweaver-Burk plot analysis.
In assay [5] the target is T2, Kinesin-like protein KIF15 (Homo sapiens, UniProt Q9NS87).
T2 sequence (Q9NS87 whole entry): T1 sequence (whole entry)
As to the kind of experiment: Inhibition of recombinant C-terminal truncated His6-tagged Kif15 (N700 residues) (unknown origin) expressed in Escherichia coli BL21 (DE3) assessed as reduction in microtubule gliding measured up to 2 mins.

In assay [6] the target is T1, Kinesin-like protein KIF15 (Homo sapiens). As to the kind of experiment: Inhibition of Kif15 in TP53-deficient human RPE1 cells assessed as reduction in Kif15 level at 25 uM after 24 hrs by Western blot analysis relative to control. (In general: Immunoblotting shows a protein as a band on a membrane.)
Assay [7] shares this target. As to the kind of experiment: Reversible inhibition of recombinant His6-tagged Kif15 (N700 residues) (unknown origin) expressed in HeLa cells assessed as reduction in Alexa-594 labelled microtubule gliding at 10 uM treated for 1 min followed by compound washout and measured every 2 secs for 1 min by epifluorescence microscopic analysis. In kind it is cell-based.
Assay [8] has the same target. As to the kind of experiment: Inhibition of Kif15 in K51-resistant human KIRC1 cells assessed as cells with monopolar spindles at 25 uM after 24 hrs by Hoechst 33342 staining based immunofluorescence microscopic analysis (reference value: 43 to 49%). Set-up: scale not given: the % may be the effect or the level left.
The target of assay [9] is T2, Kinesin-like protein KIF15. As to the kind of experiment: Inhibition of recombinant His6-tagged Kif15 (N700 residues) (unknown origin) expressed in HeLa cells assessed as reduction in Alexa-594 labelled microtubule gliding measured every 2 secs for 20 secs by epifluorescence microscopic analysis. It counts as cell-based.
The target of assay [10] is T1, Kinesin-like protein KIF15 (Homo sapiens). As to the kind of experiment: Inhibition of Kif15 in TP53-deficient human RPE1 cells assessed as reduction in spindle-bound Kif15 level at 25 uM after 24 hrs by Hoechst 33342 staining based immunofluorescence microscopic analysis relative to control.
Assay [11] shares this target. Description: Inhibition of recombinant His6-tagged Kif15 ATPase activity (N420 residues) (unknown origin) expressed in HeLa cells at 10 uM using microtubule as substrate preincubated for 15 mins followed by ATP addition and measured after 20 mins by ADP-Glo luminescence assay relative to control.
Assay [12] addresses T2, Kinesin-like protein KIF15. Description: Inhibition of recombinant His6-tagged Kif15 ATPase activity (N420 residues) (unknown origin) expressed in HeLa cells using microtubule as substrate preincubated for 15 mins followed by ATP addition and measured after 20 mins by ADP-Glo luminescence assay. Background: ADP-Glo first removes unused ATP, then detects ADP through luciferase.

Active and inactive are the calls of the source. The rule behind the calls is not given here.

Here are results for 25 molecules from ChEMBL document CHEMBL4371054, “Dual inhibition of Kif15 by oxindole and quinazolinedione chemical probes” (Bioorg Med Chem Lett, 2019).

As usually defined, the inhibition is the drop in the measured response relative to a control, in per cent. For `O=C1Nc2ccc(-c3ccco3)cc2/C1=C/c1cc(Cl)c(O)c(Cl)c1`, the inhibition in [1] was determined as 33%.
Consider `O=C1Nc2ccc(C(=O)c3ccco3)cc2/C1=C/c1ccnc(Cl)c1`, for which the inhibition in [1] amounted to 15.8%.
Turning to `O=C1Nc2ccc(C(=O)c3ccco3)cc2/C1=C/c1cc(I)c(O)c(I)c1`, the inhibition in [1] was 26%.
On to `O=C1Nc2ccc(C(=O)c3ccco3)cc2/C1=C/c1cc(Cl)c(O)c(Br)c1`, for which, in assay [1], the inhibition turned out to be 62%.
As a reminder, the IC50 is the concentration needed to halve the response being measured. For the molecule `CCOC(=O)c1sc(NC(=O)[C@H](C(C)C)n2c(=O)[nH]c3ccccc3c2=O)nc1C`, the Activity in assay [2] worked out at 9.9 µm; in [3], 96%; in [8] it was 84%. The inhibition entry in [4] and in assay [7] was “Active” each time. Further, the IC50 in assay [5] stood at 1720 nM; in assay [9], 200 nM. Further, the inhibition in [6] was determined as 15%. Also, the inhibition entry in assay [10] is “inactive”.
Turning to `O=C1Nc2ccc(I)cc2/C1=C/c1cc(F)c(O)c(F)c1`, in assay [1], the inhibition stood at 4.8%.
Consider `COc1cc(/C=C2\C(=O)Nc3ccc(C(=O)c4ccco4)cc32)cc(Cl)c1O`, for which the inhibition in [1] is -3.5%.
In the case of `O=C1Nc2ccc(I)cc2/C1=C/c1cc(Cl)c(O)c(Cl)c1`, the inhibition in assay [1] worked out at 15%.
Same read-out and setting: next, `O=C1Nc2ccc(C(=O)c3ccco3)cc2/C1=C/c1ccncc1`: 0.8%; `O=C1Nc2ccc(-c3cccc(F)c3)cc2/C1=C/c1cc(Cl)c(O)c(Cl)c1`: -5.8%.
As to `COc1ccc(/C=C2\C(=O)Nc3ccc(C(=O)c4ccco4)cc32)cc1Br`, the inhibition in [1] is 2.3%.
Take `O=C1Nc2ccc(C(=O)c3ccco3)cc2/C1=C/c1ccc(O)c(C(F)(F)F)c1`: in assay [1], the inhibition turned out to be 9.5%.
For the molecule `O=C1Nc2ccc(C(=O)c3ccco3)cc2/C1=C/c1cc(F)c(O)c(Br)c1`, the inhibition in assay [1] turned out to be 38%.
On to `O=C1Nc2ccc(C(=O)c3ccco3)cc2/C1=C/c1cc(Br)c(O)c(Br)c1`, for which, in assay [1], the inhibition turned out to be 65%.
With `O=C1Nc2ccc(C(=O)N3CCCC3)cc2/C1=C/c1cc(Cl)c(O)c(Cl)c1`, the inhibition in assay [1] is -10%.
Turning to `O=C1Nc2ccc(-c3ccccn3)cc2/C1=C/c1cc(Cl)c(O)c(Cl)c1`, the inhibition in [1] was 7.3%.
In the case of `O=C1Nc2ccc(C(=O)c3ccco3)cc2/C1=C/c1ccc(O)nc1`, the inhibition in [1] was determined as 26.5%.
Consider `O=C1Nc2ccc(C(=O)c3ccco3)cc2/C1=C/c1ccc(O)c(Br)c1`, for which, in assay [1], the inhibition amounted to 23%.
Same read-out and setting: next, `CN(C)C(=O)c1ccc2c(c1)/C(=C/c1cc(Cl)c(O)c(Cl)c1)C(=O)N2`: 15.3%.
On to `O=C1Nc2ccc(I)cc2/C1=C/c1cc(Br)c(O)c(Br)c1`, for which, in assay [11], the inhibition was 90%. In addition, in assay [12], the IC50 was 2500 nM.
Turning to `O=C1Nc2ccc(C(=O)c3ccco3)cc2/C1=C/c1cccc(O)c1`, the inhibition in assay [1] turned out to be 8.21%.
Consider `O=C1Nc2ccc(C(=O)c3ccco3)cc2/C1=C/c1cc(Br)cc(Br)c1`, for which the inhibition in [1] amounted to 16%.
Same read-out and setting: as for `O=C1Nc2ccc(C(=O)c3ccco3)cc2/C1=C/c1ccc(Br)c(O)c1`, the figure is -5.6%; as for `Cc1cc(/C=C2\C(=O)Nc3ccc(C(=O)c4ccco4)cc32)cc(C)c1O`, 9%; as for `O=C1Nc2ccc(C(=O)c3ccco3)cc2/C1=C/c1cc(F)c(O)c(F)c1`, 21%.
